Source: paper PMC10178127, “Immunomodulatory Effects of the Pea Defensin Psd1 in the Caco-2/Immune Cells Co-Culture upon Candida albicans Infection” (International Journal of Molecular Sciences, 2023)

System: Caco-2 polarized monolayer
Test: Multiplex xMAP cytokine production, Caco-2 monolayer without immune cells
Assay type: cell-based, human
Conditions: 24 h; for EGF level / Eotaxin level / FGF-2 level / FLT-3L level / Fractalkine level / G-CSF level / GM-CSF level / GROa level / IFNa2 level / IFNg level / IL-1RA level / IL-1a level / IL-1b level / IL-2 level / IL-3 level / IL-4 level / IL-5 level / IL-6 level / IL-7 level / IL-8 level / IL-9 level / IL-10 level / IL-12 (p40) level / IL-12 (p70) level / IL-13 level / IL-15 level / IL-17A level / IL-17E/IL-25 level / IL-17F level / IL-18 level / IL-22 level / IL-27 level / IP-10 level / M-GSF level / MCP-1 level / MCP-3 level / MDC level / MIG level / MIP-1a level / MIP-1b level / PDGF-AA level / PDGF-AB/BB level / RANTES level / TGF-a level / TNFa level / TNFb level / VEGFa level / sCD40L level: 2 µM apical, basolateral medium
Method: To estimate the impact of Candida albicans on cytokine production by intestinal-like epithelium, Caco-2 polarized monolayer without immune cells was used. […] A decrease in concentrations of IL-13 and IL-18 was also observed.
For growing cells, mimicking epithelial barriers in vitro, Caco-2 cells were seeded onto 24-well polycarbonate Millicell cell culture inserts (0.4 μm, 0.6 cm^2 surface area) (Millipore, Burlington, MA, USA), precoated with 0.2% bovine gelatin (Sigma-Aldrich), at a density of 2.5 × 10^5 cells/cm^2. The cells were grown for 21 days in a complete DMEM/F12 (1:1) medium with re-feeding every 2–3 days with a fresh complete medium. The integrity of the Caco-2 cell monolayer was checked by measuring the transepithelial electrical resistance (TEER) using a Millicell-ERS Voltohmmeter (Millipore). Only cell monolayers with TEER > 400 Ωcm^2 (after subtracting TEER in blank inserts without Caco-2 cells) were used in transport across epithelial monolayer and cytokine production experiments.
Monocytes and moDCs were seeded into the wells of 48- and 24-well plates in the complete RPMI-1640 medium supplemented with 10% human AB serum (HABS, Capricorn Scientific) without antibiotics 24 h prior to the experiment, and kept in a humidified CO2-incubator (5% CO2, 37 °C). After 24 h, the medium in the wells of the 48-well plate was replaced by fresh complete RPMI-1640 medium with 10% HABS, supplemented with 2 µM of Psd1 for the sample wells or fresh medium alone for the control wells. Medium in the wells of the 24-well plate was replaced by fresh complete RPMI-1640 medium with 10% human serum without antibiotics. Then, Millicell inserts with Caco-2 monolayers with TEER > 400 Ωcm^2 were placed into the wells of the 24-well plate, containing monocytes or moDCs. Wells with Millicell inserts with Caco-2 monolayers without immune cells were used as control wells. Medium in apical chambers of Millicell inserts was replaced by fresh complete RPMI-1640 with 10% human serum medium containing Psd1 at the final concentration of 2 µM or Candida albicans at the concentration of 5 × 10^4 cells/mL or yeast cells together with the pea defensin at the same concentration. Fresh complete RPMI-1640 medium only with 10% human serum and without antibiotics was used in control wells. Plates were kept in CO2-incubator (5% CO2, 37 °C) for another 24 h. Culture supernatants from the wells of the 48-well plate and basolateral chambers of the 24-well plate were collected and stored at −70 °C degrees less than one month prior to the analytes assessment.
The following 48 analytes were measured at a protein level by multiplex xMAP technology using the MILLIPLEX Human Cytokine/Chemokine/Growth Factor Panel A kit (HCYTA-60K-PX48, Merck, Darmstadt, Germany): sCD40L, EGF, Eotaxin-1/CCL11, FGF-2/FGF-basic, Flt-3 ligand, Fractalkine/CX3CL1, G-CSF, GM-CSF, GROα/CXCL1, IFNα2, IFNγ, IL-1α, IL-1β, IL-1RA, IL-2, IL-3, IL-4, IL-5, IL-6, IL-7, IL-8/CXCL8, IL-9, IL-10, IL-12(p40), IL-12(p70), IL-13, IL-15, IL-17A/CTLA8, IL-17E/IL-25, IL-17F, IL-18, IL-22, IL-27, IP-10/CXCL10, MCP-1/CCL2, MCP-3/CCL7, M-CSF, MDC/CCL22, MIG/CXCL9, MIP-1α/CCL3, MIP-1β/CCL4, PDGF-AA, PDGF-AB/BB, RANTES/CCL5, TGFα, TNFα, TNFβ, and VEGF-A. Multiplex-based assay read-out was performed using the MAGPIX system (Merck) with the xPONENT 4.2 software (Merck) in accordance with the manufacturer’s instruction with overnight incubation of the samples with primary antibodies. A final analysis was carried out with the MILLIPLEX Analyst v5.1 software (Merck). Measurements were performed twice for each sample. Release of the analytes in control and experimental samples was compared with an unpaired two-sample t-test using GraphPad Prism v.8.0.1 (GraphPad Software, Inc., San Diego, CA, USA). The p values ≤ 0.05 were considered significant.

## Psd1: pea defensin from Pisum sativum (UNIPROT P81929), recombinant peptide overexpressed in Escherichia coli (KTCEHLADTYRGVCFTNASCDDHCKNKAHLISGTCHNWKCFCTQNC; UniProt P81929 1-46, looked up)
Caco-2+Candida+Psd1
  EGF level: 1.19 pg/mL
  Eotaxin level: <3.52↓ pg/ml
  FGF-2 level: <13.35↓ pg/ml
  FLT-3L level: <0.40↓ pg/ml
  Fractalkine level: <17.82↓ pg/ml
  G-CSF level: <3.01↓ pg/ml
  GM-CSF level: <0.89↓ pg/ml
  GROa level: 34.82 pg/mL
  IFNa2 level: <4.56↓ pg/ml
  IFNg level: <2.23↓ pg/ml
  IL-1RA level: <0.66↓ pg/ml
  IL-1a level: <3.42↓ pg/ml
  IL-1b level: <2.26↓ pg/ml
  IL-2 level: <0.95↓ pg/ml
  IL-3 level: <0.60↓ pg/ml
  IL-4 level: <1.14↓ pg/ml
  IL-5 level: <0.30↓ pg/ml
  IL-6 level: 0.67 pg/mL
  IL-7 level: <0.38↓ pg/ml
  IL-8 level: 4.2 pg/mL
  IL-9 level: <2.08↓ pg/ml
  IL-10 level: <1.24↓ pg/ml
  IL-12 (p40) level: <3.56↓ pg/ml
  IL-12 (p70) level: <1.68↓ pg/ml
  IL-13 level: <2.61↓ pg/ml
  IL-15 level: <1.43↓ pg/ml
  IL-17A level: <2.09↓ pg/ml
  IL-17E/IL-25 level: <18.85↓ pg/ml
  IL-17F level: <19.03↓ pg/ml
  IL-18 level: 2.95 pg/mL
  IL-22 level: <5.23↓ pg/ml
  IL-27 level: <11.43↓ pg/ml
  IP-10 level: 5.8 pg/mL
  M-GSF level: <24.28↓ pg/ml
  MCP-1 level: <2.03↓ pg/ml
  MCP-3 level: <4.18↓ pg/ml
  MDC level: <0.30↓ pg/ml
  MIG level: <3.51↓ pg/ml
  MIP-1a level: <1.88↓ pg/ml
  MIP-1b level: <0.16↓ pg/ml
  PDGF-AA level: 160.02 pg/mL
  PDGF-AB/BB level: <5.84↓ pg/ml
  RANTES level: <0.62↓ pg/ml
  TGF-a level: <0.63↓ pg/ml
  TNFa level: <3.89↓ pg/ml
  TNFb level: 1.64 pg/mL
  VEGFa level: 197.1 pg/mL
  sCD40L level: <4.88↓ pg/ml
Caco-2+Psd1
  EGF level: 1.19 pg/mL
  Eotaxin level: <3.52↓ pg/ml
  FGF-2 level: <13.35↓ pg/ml
  FLT-3L level: 0.46 pg/mL
  Fractalkine level: <17.82↓ pg/ml
  G-CSF level: <3.01↓ pg/ml
  GM-CSF level: <0.89↓ pg/ml
  GROa level: 27.77 pg/mL
  IFNa2 level: <4.56↓ pg/ml
  IFNg level: <2.23↓ pg/ml
  IL-1RA level: <0.66↓ pg/ml
  IL-1a level: 3.99 pg/mL
  IL-1b level: <2.26↓ pg/ml
  IL-2 level: <0.95↓ pg/ml
  IL-3 level: <0.60↓ pg/ml
  IL-4 level: 2.07 pg/mL
  IL-5 level: <0.30↓ pg/ml
  IL-6 level: 2.29 pg/mL
  IL-7 level: <0.38↓ pg/ml
  IL-8 level: 11.44 pg/mL
  IL-9 level: <2.08↓ pg/ml
  IL-10 level: <1.24↓ pg/ml
  IL-12 (p40) level: <3.56↓ pg/ml
  IL-12 (p70) level: <1.68↓ pg/ml
  IL-13 level: 6.35 pg/mL
  IL-15 level: <1.43↓ pg/ml
  IL-17A level: <2.09↓ pg/ml
  IL-17E/IL-25 level: <18.85↓ pg/ml
  IL-17F level: <19.03↓ pg/ml
  IL-18 level: 3.42 pg/mL
  IL-22 level: <5.23↓ pg/ml
  IL-27 level: <11.43↓ pg/ml
  IP-10 level: 7.04 pg/mL
  M-GSF level: <24.28↓ pg/ml
  MCP-1 level: <2.03↓ pg/ml
  MCP-3 level: <4.18↓ pg/ml
  MDC level: <0.30↓ pg/ml
  MIG level: <3.51↓ pg/ml
  MIP-1a level: <1.88↓ pg/ml
  MIP-1b level: <0.16↓ pg/ml
  PDGF-AA level: 347.49 pg/mL
  PDGF-AB/BB level: <5.84↓ pg/ml
  RANTES level: <0.62↓ pg/ml
  TGF-a level: 0.67 pg/mL
  TNFa level: <3.89↓ pg/ml
  TNFb level: 5.02 pg/mL
  VEGFa level: 413.86 pg/mL
  sCD40L level: <4.88↓ pg/ml
Caco-2, 2 μM apical
  IL-6, IL-8/CXCL8, and IP-10 production: increase
  direct immunomodulatory action on epithelial cells: no significant direct immunomodulatory action
